Laboratory results as given in patent publication US10072003B2, “Tetrahydronaphthyridine derivatives as mGluR2-negative allosteric modulators, compositions, and their use” (Merck Sharp & Dohme Corp., priority 2014, dated 2018).

The molecules below were run against recombinant human mGluR2 (Homo sapiens (Human), UniProt Q14416) (assay: FLIPR Ca2+ mobilization antagonist assay in CHO dhfr- cells expressing human mGluR2 and Gα16). Details: antagonist response after addition of 2,500 nM glutamate, Fluo-4 AM, FLIPR384.
Type: cell-based
Procedure: Antagonist constants are determined as follows. The compounds of the invention were tested in a fluorescence laser imaging plate reader based assay. This assay is a common functional assay to monitor Ca2+ mobilization in whole cells expressing recombinant receptor coupled with a promiscuous G-protein. CHO dhfr-cells stably expressing recombinant human mGluR2 and Gα16 loaded with Fluo-4 AM (Invitrogen, Carlsbad Calif.) were treated with various concentrations of antagonists of compounds and the Ca2+ response was monitored on a FLIPR384 (Molecular Devices, Sunnydale Calif.) for agonist activity. Then 2,500 nM glutamate was added and the antagonist response was monitored. The maximum calcium response at each concentration of compound for agonist or antagonist were plotted as dose responses and the curves were fitted with a four parameter logistic equation giving IC50 and Hill coefficient using the iterative non linear curve fitting software ADA (Merck & Co). Data in the following table represent activities in the antagonist assay.

Chain of recombinant human mGluR2 (Q14416 19-872): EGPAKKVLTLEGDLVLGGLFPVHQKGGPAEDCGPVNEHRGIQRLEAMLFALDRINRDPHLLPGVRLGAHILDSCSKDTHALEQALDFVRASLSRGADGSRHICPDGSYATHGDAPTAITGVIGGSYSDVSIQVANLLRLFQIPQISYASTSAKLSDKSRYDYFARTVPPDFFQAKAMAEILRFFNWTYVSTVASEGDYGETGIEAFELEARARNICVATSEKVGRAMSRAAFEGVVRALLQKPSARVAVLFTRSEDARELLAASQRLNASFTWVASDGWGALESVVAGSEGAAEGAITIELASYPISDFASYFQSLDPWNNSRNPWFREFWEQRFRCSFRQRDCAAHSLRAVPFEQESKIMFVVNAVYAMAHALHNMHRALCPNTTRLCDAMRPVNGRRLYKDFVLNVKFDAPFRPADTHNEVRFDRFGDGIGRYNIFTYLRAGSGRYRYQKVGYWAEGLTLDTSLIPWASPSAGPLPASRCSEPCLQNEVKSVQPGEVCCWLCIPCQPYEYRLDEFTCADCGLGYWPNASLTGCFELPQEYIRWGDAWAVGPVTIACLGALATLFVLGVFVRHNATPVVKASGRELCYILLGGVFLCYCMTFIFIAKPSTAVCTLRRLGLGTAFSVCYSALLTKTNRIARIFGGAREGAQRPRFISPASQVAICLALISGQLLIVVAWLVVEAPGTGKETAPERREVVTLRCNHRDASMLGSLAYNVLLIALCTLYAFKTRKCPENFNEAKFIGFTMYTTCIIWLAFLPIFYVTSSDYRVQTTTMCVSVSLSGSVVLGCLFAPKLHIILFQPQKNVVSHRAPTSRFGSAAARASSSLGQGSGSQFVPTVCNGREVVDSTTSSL

Row | Compound | IC50 [µM]
1 | NC(=O)c1cc(-c2cnn(C(F)F)c2)c2c(n1)CN(Cc1ccnc(C(F)(F)F)c1)CC2 [Example 2-5, 4-[1-(difluoromethyl)-1H-pyrazol-4-yl]-7-{[2-(trifluoromethyl)pyridin-4-yl]methyl}-5,6,7,8-tetrahydro-1,7-naphthyridine-2-carboxamide] | 0.0303
2 | NC(=O)c1cc(-c2c(F)cc(Cl)cc2F)c2c(n1)CN(Cc1ccnc(C(F)(F)F)n1)CC2 [Example 11-9, 4-(4-chloro-2,6-difluorophenyl)-7-{[2-(trifluoromethyl)pyrimidin-4-yl]methyl}-5,6,7,8-tetrahydro-1,7-naphthyridine-2-carboxamide] | 0.0065
3 | NC(=O)c1cc(-c2cnn(C(F)F)c2)c2c(n1)CN(Cc1ccnc(OC(F)F)c1)CC2 [Example 2-12, 7-{[2-(difluoromethoxy)pyridin-4-yl]methyl}-4-[1-(difluoromethyl)-1H-pyrazol-4-yl]-5,6,7,8-tetrahydro-1,7-naphthyridine-2-carboxamide] | 0.0085
4 | NC(=O)c1cc(-c2ccc(F)cc2)c2c(n1)CN(Cc1ccccc1C(N)=O)CC2 [Example 2-2, 7-(2-carbamoylbenzyl)-4-(4-fluorophenyl)-5,6,7,8-tetrahydro-1,7-naphthyridine-2-carboxamide] | 0.0282
5 | CC(C)(C)[C@H]1C[C@@H](CN2CCc3c(-c4ccc(F)cc4)cc(C(N)=O)nc3C2)CCO1 [Example 1-3B, 7-(((2R,4S)-2-(tert-butyl)tetrahydro-2H-pyran-4-yl)methyl)-4-(4-fluorophenyl)-5,6,7,8-tetrahydro-1,7-naphthyridine-2-carboxamide] | 0.179
6 | CC(C)(C)n1nccc1CN1CCc2c(-c3ccncc3)cc(C(N)=O)nc2C1 [Example 1-13, 7-[(1-tert-butyl-1H-pyrazol-5-yl)methyl]-4-pyridin-4-yl-5,6,7,8-tetrahydro-1,7-naphthyridine-2-carboxamide] | 0.0841
7 | NC(=O)c1cc(-c2ccc(F)cc2)c2c(n1)CN(CCc1cccnc1N)CC2 [Example 1-4, 7-(2-(2-aminopyridin-3-yl)ethyl)-4-(4-fluorophenyl)-5,6,7,8-tetrahydro-1,7-naphthyridine-2-carboxamide] | 0.0835
8 | COc1cc(F)ccc1-c1cc(C(N)=O)nc2c1CCN(Cc1ccnc(C3CC3)c1)C2 [Example 2-10, 7-[(2-cyclopropylpyridin-4-yl)methyl]-4-(4-fluoro-2-methoxyphenyl)-5,6,7,8-tetrahydro-1,7-naphthyridine-2-carboxamide] | 0.0409
9 | CC1(C)CC(CN2CCc3c(-c4ccc(F)cc4F)cc(C(N)=O)nc3C2)CCO1 (single isomer, unassigned) [Example 1-11B, (S) or (R)-4-(2,4-difluorophenyl)-7-[(2,2-dimethyltetrahydro-2H-pyran-4-yl)methyl]-5,6,7,8-tetrahydro-1,7-naphthyridine-2-carboxamide] | 0.0452
10 | NC(=O)c1cc(-c2ccc(F)cc2F)c2c(n1)CN(Cc1cc(C(F)(F)F)ncn1)CC2 [Example 2-23, 4-(2,4-difluorophenyl)-7-{[6-(trifluoromethyl)pyrimidin-4-yl]methyl}-5,6,7,8-tetrahydro-1,7-naphthyridine-2-carboxamide] | 0.0057
11 | NC(=O)c1cc(N2CCC3(CC2)CC3)c2c(n1)CN(Cc1cc(C(F)(F)F)ncn1)CC2 [Example 12-5, 4-(6-azaspiro[2.5]oct-6-yl)-7-{[6-(trifluoromethyl)pyrimidin-4-yl]methyl}-5,6,7,8-tetrahydro-1,7-naphthyridine-2-carboxamide] | 0.0204
12 | Cc1cc(-c2cc(C(N)=O)nc3c2CCN(Cc2ccnc(OC(F)F)c2)C3)sn1 [Example 2-16, 7-{[2-(difluoromethoxy)pyridin-4-yl]methyl}-4-(3-methylisothiazol-5-yl)-5,6,7,8-tetrahydro-1,7-naphthyridine-2-carboxamide] | 0.0267
13 | CS(=O)(=O)c1cccc(CN2CCc3c(-c4ccccc4F)cc(C(N)=O)nc3C2)c1 [Example 2-13, 4-(2-fluorophenyl)-7-[3-(methylsulfonyl)benzyl]-5,6,7,8-tetrahydro-1,7-naphthyridine-2-carboxamide] | 0.0478
14 | COc1cnn(-c2cc(C(N)=O)nc3c2CCN(Cc2ccnc(C(F)(F)F)c2)C3)c1 [Example 5-8, 4-(4-methoxy-1H-pyrazol-1-yl)-7-{[2-(trifluoromethyl)pyridin-4-yl]methyl}-5,6,7,8-tetrahydro-1,7-naphthyridine-2-carboxamide] | 0.0887
15 | CC1CCCN(c2cc(C(N)=O)nc3c2CCN(Cc2ccnc(C(F)(F)F)c2)C3)C1 (single isomer, unassigned) [Example 5-5B, (R) or (S)-4-(3-methylpiperidin-1-yl)-7-((2-(trifluoromethyl)pyridin-4-yl)methyl)-5,6,7,8-tetrahydro-1,7-naphthyridine-2-carboxamide] | 0.0129
16 | COc1cc(C(N2CCc3c(-c4cnn(C)c4)cc(C(N)=O)nc3C2)C(F)(F)F)ccn1 (racemic) [Example 3-2B, (S) and (R)-4-(1-methyl-1H-pyrazol-4-yl)-7-(2,2,2-trifluoro-1-(2-methoxypyridin-4-yl)ethyl)-5,6,7,8-tetrahydro-1,7-naphthyridine-2-carboxamide] | 0.0114
17 | NC(=O)c1cc(-c2ccccc2F)c2c(n1)CN(Cc1ccnc(C(F)(F)F)n1)CC2 [Example 11-8, 4-(2-fluorophenyl)-7-{[2-(trifluoromethyl)pyrimidin-4-yl]methyl}-5,6,7,8-tetrahydro-1,7-naphthyridine-2-carboxamide] | 0.0118
18 | NC(=O)c1cc(-c2ccc(F)cc2F)c2c(n1)CN(CC1CCOC(C3CCC3)C1)CC2 (single isomer, unassigned) [Example 1-14, 7-(((2S,4R) or (2R,4S)-2-cyclobutyltetrahydro-2H-pyran-4-yl)methyl)-4-(2,4-difluorophenyl)-5,6,7,8-tetrahydro-1,7-naphthyridine-2-carboxamide] | 0.0403
19 | NC(=O)c1cc(N2CCC3(CC2)CC3)c2c(n1)CN(Cc1ccnc(C(F)(F)F)n1)CC2 [Example 12-2, 4-(6-azaspiro[2.5]oct-6-yl)-7-{[2-(trifluoromethyl)pyrimidin-4-yl]methyl}-5,6,7,8-tetrahydro-1,7-naphthyridine-2-carboxamide] | 0.0131
20 | Cn1nncc1CN1CCc2c(-c3c(F)cc(F)cc3F)cc(C(N)=O)nc2C1 [Example 2-21, 7-[(1-methyl-1H-1,2,3-triazol-5-yl)methyl]-4-(2,4,6-trifluorophenyl)-5,6,7,8-tetrahydro-1,7-naphthyridine-2-carboxamide] | 0.0337
21 | Cn1nnnc1CN1CCc2c(-c3ccc(F)cc3F)cc(C(N)=O)nc2C1 [Example 2-18, 4-(2,4-difluorophenyl)-7-[(1-methyl-1H-tetrazol-5-yl)methyl]-5,6,7,8-tetrahydro-1,7-naphthyridine-2-carboxamide] | 0.0495
22 | NC(=O)c1cc(-n2cc(Cl)cn2)c2c(n1)CN(Cc1ccnc(C(F)(F)F)n1)CC2 [Example 12-3, 4-(4-chloro-1H-pyrazol-1-yl)-7-{[2-(trifluoromethyl)pyrimidin-4-yl]methyl}-5,6,7,8-tetrahydro-1,7-naphthyridine-2-carboxamide] | 0.0932
